From patent US6436631B1, “Comparative phenotype analysis for assessment of biologically active compounds such as antimicrobials” (priority 2000, dated 2002)

Tested on: E. coli (MG1655)
Assay: BAC combination (synergy/antagonism) testing in ES1, ES2 and ES3 MicroPlate sensitivity panels, tetrazolium violet
Format: cell-based
Method: In this Example, the susceptibility of E. coli (MG1655) was tested in the presence of vancomycin (10 μg/ml) or sulfamethoxazole (235 μg/ml) in microarrays containing various additional compounds. The microarrays were present in three Biolog™ sensitivity test panels, referred to as ES1, ES2 and ES3 MicroPlates™. The organisms were added to a sterile aqueous suspension containing 0.40% NaCl, 0.03% pluronic F68, 0.01% phytagel, and 0.01% tetrazolium violet, to a cell density of 85% transmittance (as measured using a BiologTm turbidimeter). The BAC to be tested was added to the suspension just prior to inoculating the organisms (100 μl/well) into the wells of the microarrays. The wells of these ES MicroPlates™ contained a basal broth medium consisting of tryptone (2 g/L), yeast extract (1 g/L), and NaCl (1 g/L). […]

Structure (SMILES): O=[N+]([O-])c1ncc[nH]1 [azomycin]
- change of sensitivity of E. coli strain to panel compound (in the presence of 235 μg/ml sulfamethoxazole, azomycin at 0.2, 0.4, 0.8 and 1.6 μg/ml): increased sensitivity

Structure (SMILES): N[C@@H](C(=O)N[C@@H]1C(=O)N2C(C(=O)O)=C(Cl)CS[C@H]12)c1ccccc1 [cefaclor]
- change of sensitivity of E. coli strain to panel compound (in the presence of 235 μg/ml sulfamethoxazole, cefaclor at 1.33, 2.66 and 5.33 μg/ml): increased sensitivity

Structure (SMILES): Cc1nnc(SCC2=C(C(=O)O)N3C(=O)[C@@H](NC(=O)Cn4cnnn4)[C@H]3SC2)s1 [cefazolin]
- change of sensitivity of E. coli strain to panel compound (in the presence of 10 μg/ml vancomycin, cefazolin at 2.0 and 4.0 μg/ml): increased sensitivity
- change of sensitivity of E. coli strain to panel compound (in the presence of 235 μg/ml sulfamethoxazole, cefazolin at 0.5, 1.0, 2.0 and 4.0 μg/ml): increased sensitivity

Structure (SMILES): CO[C@@]1(NC(=O)Cc2cccs2)C(=O)N2C(C(=O)O)=C(COC(N)=O)CS[C@@H]21 [cefoxitin]
- change of sensitivity of E. coli strain to panel compound (in the presence of 10 μg/ml vancomycin, cefoxitin at 0.75 and 1.5 μg/ml): increased sensitivity

Structure (SMILES): NC(=O)c1cc[n+](CC2=C(C(=O)O)N3C(=O)[C@@H](NC(=O)[C@@H](c4ccccc4)S(=O)(=O)[O-])[C@H]3SC2)cc1 [cefsulodin]
- change of sensitivity of E. coli strain to panel compound (in the presence of 235 μg/ml sulfamethoxazole, cefsulodin at 8 and 16 μg/ml): increased sensitivity

Structure (SMILES): O=C(Cc1cccs1)N[C@@H]1C(=O)N2C(C(=O)[O-])=C(C[n+]3ccccc3)CS[C@H]12 [cephaloridine]
- change of sensitivity of E. coli strain to panel compound (in the presence of 235 μg/ml sulfamethoxazole, cephaloridine at 0.75, 1.5, 3.0 and 6.0 μg/ml): increased sensitivity

Structure (SMILES): [Cl][Cr]([Cl])[Cl] [chromium chloride]
- change of sensitivity of E. coli strain to panel compound (in the presence of 235 μg/ml sulfamethoxazole, chromium chloride at 200 and 400 μg/ml): increased sensitivity

Structure (SMILES): [Cl][Co][Cl] [cobalt chloride]
- change of sensitivity of E. coli strain to panel compound (in the presence of 235 μg/ml sulfamethoxazole, cobalt chloride 12 and 25 μg/ml): increased sensitivity

Structure (SMILES): CC(=O)O[C@H]1C[C@@]2(C)[C@@H](C[C@@H](O)[C@H]3[C@@]4(C)CC[C@@H](O)[C@@H](C)[C@@H]4CC[C@@]32C)/C1=C(\CCC=C(C)C)C(=O)O [fusidic acid]
- change of sensitivity of E. coli strain to panel compound (in the presence of 10 μg/ml vancomycin, fusidic acid at 200 and 400 μg/ml): increased sensitivity

Structure (SMILES): [Cl][Ni][Cl] [nickel chloride]
- change of sensitivity of E. coli strain to panel compound (in the presence of 235 μg/ml sulfamethoxazole, nickel chloride at 20 and 40 μg/ml): increased sensitivity

Structure (SMILES): CO[C@@H]1[C@@H](OC(N)=O)[C@@H](O)[C@H](Oc2ccc3c(O)c(NC(=O)c4ccc(O)c(CC=C(C)C)c4)c(=O)oc3c2C)OC1(C)C [novobiocin]
- change of sensitivity of E. coli strain to panel compound (in the presence of 10 μg/ml vancomycin, novobiocin at 33 and 66 μg/ml): increased sensitivity
- change of sensitivity of E. coli strain to panel compound (in the presence of 235 μg/ml sulfamethoxazole, novobiocin at 66 and 133 μg/ml): increased resistance

Structure (SMILES): COc1cc(Cc2cnc(N)nc2N)cc(OC)c1OC [trimethoprim]
- change of sensitivity of E. coli strain to panel compound (in the presence of 10 μg/ml vancomycin, trimethoprim at 0.17, 0.33, 0.67 and 1.3 ng/ml): increased sensitivity
- change of sensitivity of E. coli strain to panel compound (in the presence of 235 μg/ml sulfamethoxazole, trimethoprim at 0.17, 0.33, 0.67 and 1.3 ng/ml): increased sensitivity
